The assay deals with Human PDE4D FL (Homo sapiens (Human), UniProt Q08499). The assay is described as follows: PDE4D3 Scintillation Proximity Assay (SPA), inhibition of enzyme activity. It is filed as biochemical. Particulars: geometric mean of 2-9 determinations unless otherwise indicated; 1 μM cAMP, 30 min at 25° C.

Some results are limits rather than exact numbers.

Chain of Human PDE4D FL (Q08499 186-808): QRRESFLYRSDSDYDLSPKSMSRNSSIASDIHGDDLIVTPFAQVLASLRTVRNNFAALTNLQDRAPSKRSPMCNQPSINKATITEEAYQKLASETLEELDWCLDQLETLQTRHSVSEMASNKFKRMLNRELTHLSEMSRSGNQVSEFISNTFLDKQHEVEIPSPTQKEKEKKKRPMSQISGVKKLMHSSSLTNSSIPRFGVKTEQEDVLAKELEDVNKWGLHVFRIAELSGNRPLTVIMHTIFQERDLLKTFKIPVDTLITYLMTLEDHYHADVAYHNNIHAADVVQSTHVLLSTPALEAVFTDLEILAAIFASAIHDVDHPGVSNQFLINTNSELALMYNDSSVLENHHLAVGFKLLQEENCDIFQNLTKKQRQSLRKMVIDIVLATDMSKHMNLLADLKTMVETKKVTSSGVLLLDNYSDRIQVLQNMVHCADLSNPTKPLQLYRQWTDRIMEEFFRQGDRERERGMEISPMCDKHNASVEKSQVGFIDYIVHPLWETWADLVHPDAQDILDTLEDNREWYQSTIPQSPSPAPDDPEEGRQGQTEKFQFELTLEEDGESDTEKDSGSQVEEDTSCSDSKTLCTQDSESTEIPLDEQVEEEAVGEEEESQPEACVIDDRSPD

`COC1CN(C(=O)c2nc3cccnn3c2-c2ccc(Cl)cc2)C1` [Example 31, [3-(4-chlorophenyl)imidazo[1,2-b]pyridazin-2-yl](3-methoxyazetidin-1-yl)methanone] showed an IC50 above 26.2 µM.

In turn, `O=C(NC1CC1)c1nc2cccnn2c1-c1ccnc(C(F)(F)F)c1` [Example 42, N-cyclopropyl-3-[2-(trifluoromethyl)pyridin-4-yl]imidazo[1,2-b]pyridazine-2-carboxamide] returned an IC50 above 12.2 µM.

Values taken from patent publication US10077269B2, “Imidazopyridazine compounds” (Pfizer Inc., priority 2014, dated 2018).
